These results are taken from patent US20080139664A1, “ANTI-GLYCATION AGENTS FOR PREVENTING AGE-, DIABETES-, AND SMOKING-RELATED COMPLICATIONS” (NATIONAL RESEARCH COUNCIL OF CANADA, priority 2001, published 2008).

A word on the IC50: it is the point on the concentration scale where inhibition reaches its midpoint.

Series [1] deals with bovine serum albumin (BSA).
Procedure: During the glycation reaction between proteins and reducing sugars, a specific fluorescence with excitation and emission wavelength of 370 nm and 440 nm, respectively, is observed. […] The assay was based on the progressive development of the characteristic Maillard fluorescence (370 nm Ex and 440 nm Em) during the progress of the glycation reaction.
The final assay volume was 200 μl and each assay well contained 0.075 mM BSA, and 50 mM D-ribose. Compounds were assayed at 3 different concentration levels (0.003, 0.03, and 0.3 mg/mL) to determine the effect of concentration on inhibition. Samples were incubated for 5 days.
The Maillard fluorescence was directly measured from the reaction solution, except for the anti-glycants that quenched the Maillard fluorescence, which were analyzed by the earlier-described HPLC method.
Solutions were incubated in microtitre plates (96 wells) at 37° C. for 5 days in a closed system.
After one hour incubation at 37° C., fluorescence readings were taken.
The IC50 values of the compounds that quenched the fluorescence of the glycated BSA were analyzed by on-line monitoring of the fluorescence of the glycated BSA separated from the fluorescence quenching assay compound by RP-HPLC. The elution profile was monitored by UV-diode array and by fluorescence (λex=370 nm, λem=440 nm). […] The incubation conditions were the same as above.
Series [2] deals with lysozyme. Put plainly: ESI-MS of lysozyme glycoforms after incubation with D-ribose.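 On all read-outs here: lysozyme incubated with D-ribose, with or without anti-glycation agents, then separated by reversed-phase HPLC and analysed by electrospray mass spectrometry.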 The following applies: 37° C., 5 days; for Peak area as % of total area of all glycoforms, 14,569: lysozyme + 2D-ribose − 2H2O (14,569 Da); for Peak area as % of total area of all glycoforms, 14,551: lysozyme + 2D-ribose − 3H2O (14,551 Da); for Peak area as % of total area of all glycoforms, 14,533: lysozyme + 2D-ribose − 5H2O (14,533 Da); for Peak area as % of total area of all glycoforms, 14,515: lysozyme + 2D-ribose − 6H2O (14,515 Da); for Peak area as % of total area of all glycoforms, 14,419: lysozyme + D-ribose − 2H2O (14,419 Da); for Peak area as % of total area of all glycoforms, 14,401: lysozyme + D-ribose − 3H2O (14,401 Da); for Peak area as % of total area of all glycoforms, 14,437: lysozyme + D-ribose − H2O (14,437 Da); for Peak area as % of total area of all glycoforms, 14,496: lysozyme + D-ribose − H2O with one carboxymethylated Lys residue (14,496 Da); for Peak area as % of total area of all glycoforms, 14,364: lysozyme with one carboxymethylated Lys residue (14,364 Da); for Peak area as % of total area of all glycoforms, 14,305: unmodified lysozyme (14,305 Da).

A value given as a limit tells only on which side of the number the result lay.

Regarding `O=[N+]([O-])c1ccc(O)c(Cl)c1` [2-Chloro-4-nitrophenol], the IC50 in series [1] came out at 3500 µM.

On to `O=c1cc(-c2ccc(O)c(O)c2)oc2cccc(O)c12` [5,3′,4′-Trihydroxyflavone], for which the midpoint of inhibition in series [1], the IC50, lay at 1600 µM.

For the molecule `Nc1c(Cl)cc([N+](=O)[O-])cc1Cl` [Botran], the IC50 in series [1] was over 4000 µM.

With `O=C(O)c1cc(/N=N/c2ccc(S(=O)(=O)Nc3ccccn3)cc2)ccc1O` [Sulfasalazine], in series [2], the “Peak area as % of total area of all glycoforms, 14,569” value (“Peak area as % of total area … 14,569” for short) is given as 4.7%; the “Peak area as % of total area of all glycoforms, 14,551” value (“Peak area as % of total area … 14,551” below) is 4.7%; the “Peak area as % of total area of all glycoforms, 14,533” value (shortened to “Peak area as % of total area … 14,533”) was found to be 2.1%; the “Peak area as % of total area of all glycoforms, 14,515” value (“Peak area as % of total area … 14,515” for short) turned out to be 1.3%. For the same molecule, in series [2], the “Peak area as % of total area of all glycoforms, 14,419” value (“Peak area as % of total area … 14,419” below) turned out to be 8.2%; the “Peak area as % of total area of all glycoforms, 14,401” value (shortened to “Peak area as % of total area … 14,401”) was 2.7%; the “Peak area as % of total area of all glycoforms, 14,437” value (“Peak area as % of total area … 14,437” for short) is recorded as 20.6%; the “Peak area as % of total area of all glycoforms, 14,496” value (“Peak area as % of total area … 14,496” below) is 1.5%. In series [2], the “Peak area as % of total area of all glycoforms, 14,364” value (shortened to “Peak area as % of total area … 14,364”) is 2.9% and the “Peak area as % of total area of all glycoforms, 14,305” value (“Peak area as % of total area … 14,305” for short) is on record as 47.2%.

For `COC(=O)C1=C(C)NC(C)=C(C(=O)OCCN(C)Cc2ccccc2)C1c1cccc([N+](=O)[O-])c1` (stereo not shown) [Nicardipine], the IC50 in series [1] is over 4000 µM.

In series [1], `CNC(=C[N+](=O)[O-])NCCSCc1ccc(CN(C)C)o1` [Ranitidine] yielded an IC50 of 1100 µM.

In the case of `Oc1c(Br)cc(Br)c2cccnc12` [Broxyquinoline], in series [1], the IC50 worked out at 390 µM. In addition, in series [2], the “Peak area as % of total area … 14,569” value is 5.7%; the “Peak area as % of total area … 14,551” value amounted to 4.7%; the “Peak area as % of total area … 14,533” value was determined as 3.2%; the “Peak area as % of total area … 14,515” value worked out at 1.7%. In addition, in series [2], the “Peak area as % of total area … 14,419” value was found to be 7.2%; the “Peak area as % of total area … 14,401” value was determined as 4.9%; the “Peak area as % of total area … 14,437” value was 21.0%; the “Peak area as % of total area … 14,496” value is reported as 1.5%. For the same molecule, in series [2], the “Peak area as % of total area … 14,364” value was found to be 2.5% and the “Peak area as % of total area … 14,305” value is given as 42.2%.

As to `CN(C)c1ccc(O)c2c1C[C@H]1C[C@H]3[C@H](N(C)C)C(O)=C(C(N)=O)C(=O)[C@@]3(O)C(O)=C1C2=O` [Minocycline], in series [1], the IC50 was found to be 46 µM. In other words, the double-digit micromolar range.

The molecule `Oc1ccc(O)cc1` [Hydroquinone] came in with an IC50 in series [1] of 250 µM.

Consider `NC(=O)NO` [Hydroxyurea], for which, in series [1], the IC50 was over 4000 µM.

`O=c1cc(-c2ccc(O)cc2)oc2cc(O)cc(O)c12` [Apigenin] showed an IC50 in series [1] of 130 µM.

In series [1], `CCS(=O)(=O)CCn1c([N+](=O)[O-])cnc1C` [Tinidazole] had an IC50 of 700 µM.

In series [1], `CC(C)(C)NCC(O)c1cc(O)cc(O)c1` (stereo not shown) [Terbutaline] came in with an IC50 of over 4000 µM.

On to `CC(C(O)c1ccc(O)cc1)N1CCC(Cc2ccccc2)CC1` (stereo not shown) [Ifenprodil], for which, in series [1], the half-inhibitory concentration (IC50) is over 4000 µM.

`O=C(N[C@H](CO)[C@H](O)c1ccc([N+](=O)[O-])cc1)C(Cl)Cl` [Chloramphenicol] registered an IC50 in series [1] of 1300 µM.

`CNCC(O)c1ccc(O)cc1` (stereo not shown) [Synephrine] displayed an IC50 in series [1] of over 4000 µM.

As to `CC(C)=CCC1=C(O)C(=O)c2ccccc2C1=O` [Lapachol], 320 µM corresponded to half-maximal inhibition in series [1] (IC50).

In turn, `O=C(Cn1ccnc1[N+](=O)[O-])NCCO` [Etanidazole] yielded an IC50 in series [1] of 450 µM.

The molecule `COC(=O)c1ccc(O)c(N)c1` [Orthoform] returned an IC50 in series [1] of 2100 µM. Compared with the last molecule, the IC50 is about 4.7-fold higher.

Take `CO[C@H]1/C=C/O[C@@]2(C)Oc3c(C)c(O)c4c(O)c(c(/C=N/N5CCN(C)CC5)c(O)c4c3C2=O)NC(=O)/C(C)=C\C=C\[C@H](C)[C@H](O)[C@@H](C)[C@@H](O)[C@@H](C)[C@H](OC(C)=O)[C@@H]1C` [Rifampicin]: the IC50 in series [1] is 120 µM.

`CN1C(C(=O)Nc2ccccn2)=C(O)c2ccccc2S1(=O)=O` [Piroxicam] yielded an IC50 in series [1] of 730 µM.

`COc1cccc2c1cc([N+](=O)[O-])c1c(C(=O)O)cc3c(c12)OCO3` [Aristolochic acid] showed an IC50 in series [1] of over 4000 µM.

In series [1], `Cc1ncc([N+](=O)[O-])n1C` [Dimetridazole] showed an IC50 of 460 µM.

In series [1], `Cc1cc(O)c2c(c1)C(=O)c1cc(O)cc(O)c1C2=O` [Emodin] returned an IC50 of 3000 µM.

In series [1], `O=c1cc(-c2ccccc2)oc2cc(O)cc(O)c12` [Chrysin] gave an IC50 of 2100 µM.

On to `Cn1cnc([N+](=O)[O-])c1Sc1ncnc2nc[nH]c12` [Azathioprine], for which the IC50 in series [1] is 400 µM.

In turn, `CC(NCCc1ccc(O)cc1)C(O)c1ccc(O)cc1` (stereo not shown) [Ritodrine] showed an IC50 in series [1] of over 4000 µM.

For `C[C@H]1c2cccc(O)c2C(=O)C2=C(O)[C@]3(O)C(=O)C(C(N)=O)=C(O)[C@@H](N(C)C)[C@@H]3[C@@H](O)[C@@H]21` [Doxycycline], in series [1], the midpoint of inhibition, the IC50, lay at 33 µM. This counts as double-digit micromolar.

In turn, `O=c1c(-c2ccc(O)cc2)coc2cc(O)ccc12` [Daidzein] gave an IC50 in series [1] of over 4000 µM.

Take `COc1ccc2c(c1)c(CC(=O)O)c(C)n2C(=O)c1ccc(Cl)cc1` [Indomethacin]: in series [2], the “Peak area as % of total area … 14,569” value came out at 3.5%; the “Peak area as % of total area … 14,551” value is given as 3.3%; the “Peak area as % of total area … 14,533” value was 1.6%; the “Peak area as % of total area … 14,515” value came to 0.0%. In series [2], the “Peak area as % of total area … 14,419” value is 7.5%; the “Peak area as % of total area … 14,401” value was 0.5%; the “Peak area as % of total area … 14,437” value came out at 18.6%; the “Peak area as % of total area … 14,496” value turned out to be 0.0%. Moreover, in series [2], the “Peak area as % of total area … 14,364” value is 5.1% and the “Peak area as % of total area … 14,305” value is 58.0%.

Molecule `Cc1ncc([N+](=O)[O-])n1CCO` [Metronidazole] displayed an IC50 in series [1] of 660 µM.

Take `O=[N+]([O-])c1cccc(SSc2cccc([N+](=O)[O-])c2)c1` [Nitrophenide]: the IC50 in series [1] was 4000 µM.

Molecule `Oc1c(Cl)cc(Cl)c2cccnc12` [Chloroxine] had an IC50 in series [1] of 1400 µM.

In turn, `COc1cc(C2Oc3cc([C@H]4Oc5cc(O)cc(O)c5C(=O)[C@@H]4O)ccc3OC2CO)ccc1O` (stereo partly shown) [Silibinin] yielded an IC50 in series [1] of 750 µM.

For the molecule `COCCOC(=O)C1=C(C)NC(C)=C(C(=O)OC(C)C)C1c1cccc([N+](=O)[O-])c1` (stereo not shown) [Nimodipine], the IC50 in series [1] is over 4000 µM.

In series [1], `CC1=C(/C=C/C(C)=C/C=C/C(C)=C/C=C/C=C(C)/C=C/C=C(C)/C=C/C2=C(C)CCCC2(C)C)C(C)(C)CCC1` [beta-Carotene] registered an IC50 of 630 µM.

In series [1], `CC(C)C(=O)Nc1ccc([N+](=O)[O-])c(C(F)(F)F)c1` [Flutamide] gave an IC50 of 1300 µM.

As to `O=S1(=O)OC(c2ccc(O)cc2)(c2ccc(O)cc2)c2ccccc21` [Phenol red], it took 1800 µM to reach half-maximal inhibition in series [1] (IC50).

As for `O=C1CN(/N=C/c2ccc([N+](=O)[O-])o2)C(=O)N1` [Nitrofurantoin], in series [1], the IC50 worked out at 44 µM and the “maximum percentage of the inhibition” value was 40%).

The molecule `COc1cc(/C=C/C(=O)CC(=O)/C=C/c2ccc(O)c(OC)c2)ccc1O` [Curcumin] came in with an IC50 in series [1] of 1100 µM.

`O=c1cc(CO)occ1O` [Kojic acid] yielded an IC50 in series [1] of over 4000 µM.
